From patent US8729091B2, “4-phenoxy-nicotinamide or 4-phenoxy-pyrimidine-5-carboxamide compounds” (Hoffmann-La Roche Inc., priority 2010, dated 2014)

The compounds below were run against T1, human GPBAR1 receptor (Homo sapiens, UniProt Q8TDU6) (assay: functional cAMP assay in CHO-dhfr(minus) cells expressing human GPBAR1 receptors). Details: cAMP increase (TR-FRET) in CHO-dhfr(minus) cells expressing human GPBAR1; compounds incubated 30 min at 30° C.
T1 construct: expressed in transfected cells
T1 sequence (Q8TDU6 1-330): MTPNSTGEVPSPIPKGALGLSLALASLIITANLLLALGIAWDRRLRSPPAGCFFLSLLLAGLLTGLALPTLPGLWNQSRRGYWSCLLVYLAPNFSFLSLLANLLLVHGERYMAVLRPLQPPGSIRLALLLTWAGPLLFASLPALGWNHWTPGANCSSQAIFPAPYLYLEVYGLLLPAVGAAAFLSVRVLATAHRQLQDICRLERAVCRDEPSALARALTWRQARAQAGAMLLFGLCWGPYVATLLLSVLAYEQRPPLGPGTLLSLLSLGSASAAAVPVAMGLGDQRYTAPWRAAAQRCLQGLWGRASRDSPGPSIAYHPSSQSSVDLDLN
Type: cell-based
Description: The final clone was verified by DNA sequence analysis. The plasmid was transfected into CHO cells deficient in dihydrofolate reductase activity (CHO-dhfr−) using Lipofectamine plus (Invitrogen). Clones were isolated in limited dilution conditions and identified by activities in the cAMP assay using lithocholic acid as agonist.
The growth medium was exchanged with Krebs Ringer Bicarbonate buffer with 1 mM IBMX and incubated at 30° C. for 30 min. Compounds were added to a final assay volume of 100 μl and incubated for 30 min at 30° C. […] The time-resolved energy transfer is measured by a TRF reader (Evotec Technologies GmbH, Hamburg Germany), equipped with a ND:YAG laser as excitation source.
EC50 values were determined using Activity Base analysis (ID Business Solution, Limited). […] Specificity for GPBAR1 was tested in non-transfected CHO cells in the same assay as above.

SMILES | EC50
CN(CCS(=O)(=O)O)C(=O)c1cc(Cl)c(Oc2ccncc2C(=O)N2CCN(C3CC3)c3ccccc32)cc1Cl [Example 36, 2-({2,5-Dichloro-4-[3-(4-cyclopropyl-3,4-dihydro-2H-quinoxaline-1-carbonyl)-pyridin-4-yloxy]-benzoyl}-methyl-amino)-ethanesulfonic acid] | 300 nM
O=C(NCCCS(=O)(=O)O)c1cc(Cl)c(Oc2ccncc2C(=O)N2CCN(C3CC3)c3ccccc32)cc1Cl [Example 37, 3-{2,5-Dichloro-4-[3-(4-cyclopropyl-3,4-dihydro-2H-quinoxaline-1-carbonyl)-pyridin-4-yloxy]-benzoylamino}-propane-1-sulfonic acid] | 900 nM
O=C(Nc1nnn[nH]1)c1cc(Cl)c(Oc2ccncc2C(=O)N2CCN(C3CC3)c3ccccc32)cc1Cl [Example 38, 2,5-Dichloro-4-[3-(4-cyclopropyl-3,4-dihydro-2H-quinoxaline-1-carbonyl)-pyridin-4-yloxy]-N-(1H-tetrazol-5-yl)-benzamide] | 40 nM
O=C(NCc1nnn[nH]1)c1cc(Cl)c(Oc2ccncc2C(=O)N2CCN(C3CC3)c3ccccc32)cc1Cl [Example 39, 2,5-Dichloro-4-[3-(4-cyclopropyl-3,4-dihydro-2H-quinoxaline-1-carbonyl)-pyridin-4-yloxy]-N-(1H-tetrazol-5-ylmethyl)-benzamide] | 400 nM
O=C(O)CCCNC(=O)c1cc(Cl)c(Oc2ccncc2C(=O)N2CCN(C3CC3)c3ccccc32)cc1Cl [Example 40, 4-{2,5-Dichloro-4-[3-(4-cyclopropyl-3,4-dihydro-2H-quinoxaline-1-carbonyl)-pyridin-4-yloxy]-benzoylamino}-butyric acid] | 200 nM
COC(=O)c1cc(NC(=O)c2cc(Cl)c(Oc3ccncc3C(=O)N3CCN(C4CC4)c4ccccc43)cc2Cl)cn1C [Example 41, 4-{2,5-Dichloro-4-[3-(4-cyclopropyl-3,4-dihydro-2H-quinoxaline-1-carbonyl)-pyridin-4-yloxy]-benzoylamino}-1-methyl-1H-pyrrole-2-carboxylic acid methyl ester] | 100 nM
Cn1cc(NC(=O)c2cc(Cl)c(Oc3ccncc3C(=O)N3CCN(C4CC4)c4ccccc43)cc2Cl)cc1C(=O)O [Example 42, 4-{2,5-Dichloro-4-[3-(4-cyclopropyl-3,4-dihydro-2H-quinoxaline-1-carbonyl)-pyridin-4-yloxy]-benzoylamino}-1-methyl-1H-pyrrole-2-carboxylic acid] | 100 nM
COC(=O)c1ccc(NC(=O)c2cc(Cl)c(Oc3ccncc3C(=O)N3CCN(C4CC4)c4ccccc43)cc2Cl)cc1 [Example 43, 4-{2,5-Dichloro-4-[3-(4-cyclopropyl-3,4-dihydro-2H-quinoxaline-1-carbonyl)-pyridin-4-yloxy]-benzoylamino}-benzoic acid methyl ester] | 100 nM
O=C(O)c1ccc(NC(=O)c2cc(Cl)c(Oc3ccncc3C(=O)N3CCN(C4CC4)c4ccccc43)cc2Cl)cc1 [Example 44, 4-{2,5-Dichloro-4-[3-(4-cyclopropyl-3,4-dihydro-2H-quinoxaline-1-carbonyl)-pyridin-4-yloxy]-benzoylamino}-benzoic acid] | 20 nM
CCOC(=O)c1sc(NC(=O)c2cc(Cl)c(Oc3ccncc3C(=O)N3CCN(C4CC4)c4ccccc43)cc2Cl)nc1C [Example 45, 2-{2,5-Dichloro-4-[3-(4-cyclopropyl-3,4-dihydro-2H-quinoxaline-1-carbonyl)-pyridin-4-yloxy]-benzoylamino}-4-methyl-thiazole-5-carboxylic acid ethyl ester] | 600 nM
Cc1nc(NC(=O)c2cc(Cl)c(Oc3ccncc3C(=O)N3CCN(C4CC4)c4ccccc43)cc2Cl)sc1C(=O)O [Example 46, 2-{2,5-Dichloro-4-[3-(4-cyclopropyl-3,4-dihydro-2H-quinoxaline-1-carbonyl)-pyridin-4-yloxy]-benzoylamino}-4-methyl-thiazole-5-carboxylic acid] | 30 nM
CCOC(=O)c1nnc(NC(=O)c2cc(Cl)c(Oc3ccncc3C(=O)N3CCN(C4CC4)c4ccccc43)cc2Cl)s1 [Example 47, 5-{2,5-Dichloro-4-[3-(4-cyclopropyl-3,4-dihydro-2H-quinoxaline-1-carbonyl)-pyridin-4-yloxy]-benzoylamino}-[1,3,4]thiadiazole-2-carboxylic acid ethyl ester] | 100 nM
O=C(Nc1nncs1)c1cc(Cl)c(Oc2ccncc2C(=O)N2CCN(C3CC3)c3ccccc32)cc1Cl [Example 48, 2,5-Dichloro-4-[3-(4-cyclopropyl-3,4-dihydro-2H-quinoxaline-1-carbonyl)-pyridin-4-yloxy]-N-[1,3,4]thiadiazol-2-yl-benzamide] | 200 nM
O=C(NCCO)c1cc(Cl)c(Oc2ccncc2C(=O)N2CCN(C3CC3)c3ccccc32)cc1Cl [Example 49, 2,5-Dichloro-4-[3-(4-cyclopropyl-3,4-dihydro-2H-quinoxaline-1-carbonyl)-pyridin-4-yloxy]-N-(2-hydroxy-ethyl)-benzamide] | 40 nM
O=C(c1cc(Cl)c(Oc2ccncc2C(=O)N2CCN(C3CC3)c3ccccc32)cc1Cl)N(CCO)CCO [Example 50, 2,5-Dichloro-4-[3-(4-cyclopropyl-3,4-dihydro-2H-quinoxaline-1-carbonyl)-pyridin-4-yloxy]-N,N-bis-(2-hydroxy-ethyl)-benzamide] | 1100 nM
O=C(NC(CO)CO)c1cc(Cl)c(Oc2ccncc2C(=O)N2CCN(C3CC3)c3ccccc32)cc1Cl [Example 51, 2,5-Dichloro-4-[3-(4-cyclopropyl-3,4-dihydro-2H-quinoxaline-1-carbonyl)-pyridin-4-yloxy]-N-(2-hydroxy-1-hydroxymethyl-ethyl)-benzamide] | 300 nM
NC(=O)c1cc(Cl)c(Oc2ccncc2C(=O)N2CCN(C3CC3)c3ccccc32)cc1Cl [Example 52, 2,5-Dichloro-4-[3-(4-cyclopropyl-3,4-dihydro-2H-quinoxaline-1-carbonyl)-pyridin-4-yloxy]-benzamide] | 10 nM
NC(=O)CCNC(=O)c1cc(Cl)c(Oc2ccncc2C(=O)N2CCN(C3CC3)c3ccccc32)cc1Cl [Example 53, N-(2-Carbamoyl-ethyl)-2,5-dichloro-4-[3-(4-cyclopropyl-3,4-dihydro-2H-quinoxaline-1-carbonyl)-pyridin-4-yloxy]-benzamide] | 100 nM
COC(=O)CCC(CCC(=O)OC)NC(=O)c1cc(Cl)c(Oc2ccncc2C(=O)N2CCN(C3CC3)c3ccccc32)cc1Cl [Example 54, 4-{2,5-Dichloro-4-[3-(4-cyclopropyl-3,4-dihydro-2H-quinoxaline-1-carbonyl)-pyridin-4-yloxy]-benzoylamino}-heptanedioic acid dimethyl ester] | 300 nM
O=C(c1cnccc1Oc1cc(Cl)c(CO)cc1Cl)N1CCN(C2CC2)c2ccccc21 [Example 55, (4-Cyclopropyl-3,4-dihydro-2H-quinoxalin-1-yl)-[4-(2,5-dichloro-4-hydroxymethyl-phenoxy)-pyridin-3-yl]-methanone] | 3 nM
N#Cc1cc(Cl)c(Oc2ccncc2C(=O)N2CCN(C3CC3)c3ccccc32)cc1Cl [Example 56, 2,5-Dichloro-4-[3-(4-cyclopropyl-3,4-dihydro-2H-quinoxaline-1-carbonyl)-pyridin-4-yloxy]-benzonitrile] | 3 nM
O=C(c1cnccc1Oc1cc(Cl)c(O)cc1Cl)N1CCN(C2CC2)c2ccccc21 [Example 57, (4-Cyclopropyl-3,4-dihydro-2H-quinoxalin-1-yl)-[4-(2,5-dichloro-4-hydroxy-phenoxy)-pyridin-3-yl]-methanone] | 10 nM
CCOC(=O)COc1cc(Cl)c(Oc2ccncc2C(=O)N2CCN(C3CC3)c3ccccc32)cc1Cl [Example 58, {2,5-Dichloro-4-[3-(4-cyclopropyl-3,4-dihydro-2H-quinoxaline-1-carbonyl)-pyridin-4-yloxy]-phenoxy}-acetic acid ethyl ester] | 30 nM
O=C(O)COc1cc(Cl)c(Oc2ccncc2C(=O)N2CCN(C3CC3)c3ccccc32)cc1Cl [Example 59, {2,5-Dichloro-4-[3-(4-cyclopropyl-3,4-dihydro-2H-quinoxaline-1-carbonyl)-pyridin-4-yloxy]-phenoxy}-acetic acid] | 500 nM
CCOC(=O)C(C)(C)Oc1cc(Cl)c(Oc2ccncc2C(=O)N2CCN(C3CC3)c3ccccc32)cc1Cl [Example 60, 2-{2,5-Dichloro-4-[3-(4-cyclopropyl-3,4-dihydro-2H-quinoxaline-1-carbonyl)-pyridin-4-yloxy]-phenoxy}-2-methyl-propionic acid ethyl ester] | 200 nM
CC(C)(Oc1cc(Cl)c(Oc2ccncc2C(=O)N2CCN(C3CC3)c3ccccc32)cc1Cl)C(=O)O [Example 61, 2-{2,5-Dichloro-4-[3-(4-cyclopropyl-3,4-dihydro-2H-quinoxaline-1-carbonyl)-pyridin-4-yloxy]-phenoxy}-2-methyl-propionic acid] | 400 nM
O=C(c1cnccc1Oc1cc(Cl)c(OCCO)cc1Cl)N1CCN(C2CC2)c2ccccc21 [Example 62, (4-Cyclopropyl-3,4-dihydro-2H-quinoxalin-1-yl)-{4-[2,5-dichloro-4-(2-hydroxy-ethoxy)-phenoxy]-pyridin-3-yl}-methanone] | 12 nM
